# Experimental data: ChEMBL document CHEMBL1155558, “New cyclic peptide and bisindolyl benzenoid metabolites from the sclerotia of Aspergillus sclerotiorum” (2000)
# Test system: Spodoptera frugiperda
# Assay: Activity against Spodoptera frugiperda assessed as reduction in feeding rate at 50 ug/cotton leaf disk
# Assay type: functional
# Parameters: scale not given: the % may be the effect or the level left
compound,measurement,value
CN1C(=O)[C@H](CCC(N)=O)NC(=O)CNC(=O)[C@H](Cc2ccccc2)N(C)C(=O)[C@H](Cc2ccccc2)NC(=O)CNC(=O)[C@@H]1Cc1ccccc1 [SCLERAMIDE],Activity,27%
